From US20230096380A1, “COMPOUNDS, COMPOSITIONS, METHODS FOR TREATING DISEASES AND NERVE DAMAGE, AND METHODS FOR PREPARING COMPOUNDS” (CHILDREN'S HOSPITAL MEDICAL CENTER, priority 2020, published 2023)
“Also recorded” adds a separate entry of the source.

Tests used:
[1] = test system: Rat oligodendrocyte progenitor cells (OPCs); assay: Rat OPC differentiation, MBP and Olig2 immunostaining after 48 h treatment (FIG. 18); format: cell-based; conditions: for OPC differentiation (MBP, Olig2 immunostaining): at the indicated concentration
Protocol: FIG. 18. Methods: This method generally follows that found in WANG et al. (2017) “miR-219 Cooperates with miR-338 in Myelination and Promotes Myelin Repair in the CNS” Dev Cell, Vol. 40, pp. 566-582. Rat oligodendrocyte progenitor cells (OPCs) were seeded on coverslip and treated with compounds, I-1, I-16, I-15, I-13, I-8, and I-17 at the indicated concentration. Cells were immunostained with a mature oligodendrocyte marker MBP and an oligodendrocyte lineage marker Olig2 after 48 h treatment.

p300 = molecular target: T1, p300 (Rattus norvegicus, UniProt A0ABK0LGW0); assay: p300 activity inhibition (FIG. 2)
T1 construct: Isolated rat OPCs were grown in Sato growth medium; endogenous in cells; host or cells: primary rat oligodendrocyte progenitor cells (OPCs) from newborn rat brain
T1 sequence (A0ABK0LGW0 1-2423): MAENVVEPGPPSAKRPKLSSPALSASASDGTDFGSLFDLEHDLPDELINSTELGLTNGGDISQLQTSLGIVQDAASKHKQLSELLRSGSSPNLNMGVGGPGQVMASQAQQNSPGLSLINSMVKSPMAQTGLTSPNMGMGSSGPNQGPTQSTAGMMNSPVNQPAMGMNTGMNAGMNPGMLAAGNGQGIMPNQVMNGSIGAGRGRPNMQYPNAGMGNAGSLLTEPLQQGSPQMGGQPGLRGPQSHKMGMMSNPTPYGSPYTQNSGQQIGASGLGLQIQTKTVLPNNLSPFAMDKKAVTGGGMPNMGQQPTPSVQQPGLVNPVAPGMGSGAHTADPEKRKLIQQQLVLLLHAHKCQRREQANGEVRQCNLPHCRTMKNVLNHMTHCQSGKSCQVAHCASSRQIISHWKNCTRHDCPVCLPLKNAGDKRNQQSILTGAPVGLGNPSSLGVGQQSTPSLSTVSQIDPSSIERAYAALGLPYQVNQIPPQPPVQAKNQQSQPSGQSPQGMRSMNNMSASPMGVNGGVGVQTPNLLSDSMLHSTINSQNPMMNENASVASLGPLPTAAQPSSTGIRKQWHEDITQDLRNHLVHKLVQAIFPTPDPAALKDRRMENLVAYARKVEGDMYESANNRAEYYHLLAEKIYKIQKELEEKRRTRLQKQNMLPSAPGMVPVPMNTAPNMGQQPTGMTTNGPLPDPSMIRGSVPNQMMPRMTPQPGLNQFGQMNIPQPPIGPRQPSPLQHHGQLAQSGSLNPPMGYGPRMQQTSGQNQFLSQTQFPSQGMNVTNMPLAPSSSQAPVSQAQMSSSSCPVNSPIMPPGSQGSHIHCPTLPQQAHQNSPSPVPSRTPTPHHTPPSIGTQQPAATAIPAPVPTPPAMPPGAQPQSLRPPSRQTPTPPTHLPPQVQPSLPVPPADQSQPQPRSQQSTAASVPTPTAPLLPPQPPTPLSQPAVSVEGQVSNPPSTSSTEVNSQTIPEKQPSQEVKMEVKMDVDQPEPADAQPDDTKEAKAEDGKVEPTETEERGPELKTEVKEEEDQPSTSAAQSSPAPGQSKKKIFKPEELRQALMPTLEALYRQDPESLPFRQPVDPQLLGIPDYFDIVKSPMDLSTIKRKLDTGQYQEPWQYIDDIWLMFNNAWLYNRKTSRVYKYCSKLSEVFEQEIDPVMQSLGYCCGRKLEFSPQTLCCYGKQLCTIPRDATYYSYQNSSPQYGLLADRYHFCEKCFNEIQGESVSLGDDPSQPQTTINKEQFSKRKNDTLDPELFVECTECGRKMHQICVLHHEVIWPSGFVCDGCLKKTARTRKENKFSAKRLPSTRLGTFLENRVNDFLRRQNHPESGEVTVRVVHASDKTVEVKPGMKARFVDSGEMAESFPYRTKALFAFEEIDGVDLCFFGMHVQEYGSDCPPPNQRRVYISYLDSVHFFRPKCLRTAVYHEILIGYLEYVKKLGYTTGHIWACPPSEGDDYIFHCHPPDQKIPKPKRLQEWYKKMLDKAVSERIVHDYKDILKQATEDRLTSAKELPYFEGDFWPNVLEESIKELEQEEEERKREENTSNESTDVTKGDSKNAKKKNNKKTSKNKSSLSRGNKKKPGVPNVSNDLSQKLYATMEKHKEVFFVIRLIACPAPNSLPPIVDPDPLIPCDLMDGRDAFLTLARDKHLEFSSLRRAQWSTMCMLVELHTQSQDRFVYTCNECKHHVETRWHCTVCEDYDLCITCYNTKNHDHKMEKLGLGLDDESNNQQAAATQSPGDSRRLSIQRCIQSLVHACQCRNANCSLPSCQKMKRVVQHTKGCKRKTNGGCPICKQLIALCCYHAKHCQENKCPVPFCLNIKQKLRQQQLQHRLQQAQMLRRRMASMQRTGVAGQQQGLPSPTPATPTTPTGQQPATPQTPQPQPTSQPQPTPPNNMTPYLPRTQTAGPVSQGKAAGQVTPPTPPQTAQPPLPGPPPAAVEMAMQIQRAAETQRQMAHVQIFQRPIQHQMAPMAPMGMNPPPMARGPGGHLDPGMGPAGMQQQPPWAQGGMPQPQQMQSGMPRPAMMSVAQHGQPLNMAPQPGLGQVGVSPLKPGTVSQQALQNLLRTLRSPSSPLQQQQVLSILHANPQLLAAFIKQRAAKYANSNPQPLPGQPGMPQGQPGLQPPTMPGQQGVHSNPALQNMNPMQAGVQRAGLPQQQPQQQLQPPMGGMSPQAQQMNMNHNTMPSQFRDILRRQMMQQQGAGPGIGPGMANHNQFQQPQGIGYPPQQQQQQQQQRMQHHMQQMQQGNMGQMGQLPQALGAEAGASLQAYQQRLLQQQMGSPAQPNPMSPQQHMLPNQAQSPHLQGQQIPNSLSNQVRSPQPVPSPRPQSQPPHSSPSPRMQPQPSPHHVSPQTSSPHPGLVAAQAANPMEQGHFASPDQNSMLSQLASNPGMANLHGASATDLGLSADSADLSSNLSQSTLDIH

[2] = test system: Primary oligodendrocyte progenitor cells (OPCs); assay: Rat primary OPC differentiation, immunostaining for MBP, OLIG2 and/or cleaved Caspase 3 (FIGS. 1-6); format: cell-based
Excerpt: FIGS. 1-6. Primary oligodendrocyte progenitor cells (OPCs) were obtained from newborn rat brains after preparation of mixed glial cultures. This method generally follows that found in ZHAO et al. (2018) “Dual Requirement of CHD8 for Chromatin Landscape Establishment and Histone Methyltransferase Recruitment to Promote CNS Myelination and Repair” Dev Cell, Vol. 45, pp. 753-768. Briefly, mixed glial cells were initially cultured in DMEM-F12 medium supplied with 15% FBS, then switched to B104 conditioned medium for 2 days before isolating OPCs by mechanical detachment in an orbital shaker. Isolated rat OPCs were grown in Sato growth medium supplemented with mitogens 10 ng/ml PDGF-AA and 10 ng/ml bFGF. OPCs were then treated with indicated compounds and immunostained with oligodendrocyte myelination markers MBP and OLIG2, and/or a cell death marker cleaved Caspase 3. T3 ((2S)-2-amino-3-[4-(4-hydroxy-3-iodophenoxy)-3,5-diiodophenyl]propanoic acid; CAS 6893-02-3) was used as a positive control; the T3 concentration used was 15 nm.

[3] = test system: experimental autoimmune encephalomyelitis (EAE) demyelinating mouse model; assay: EAE demyelinating mouse model induced by myelin peptide MOG35-55 (FIG. 7); format: in vivo; conditions: EAE mice
Excerpt: FIG. 7. This method generally follows that found in WANG et al. (2017) “miR-219 Cooperates with miR-338 in Myelination and Promotes Myelin Repair in the CNS” Dev Cell, Vol. 40, pp. 566-582.

EAE mice = assay: Visual evoked potential (VEP) analyses on EAE mice (FIG. 17); format: in vivo; conditions: EAE mice at the peak of disease, versus Vehicle
Protocol: FIG. 17. Visual evoked potential (VEP) analyses were carried out on EAE mice treated with Vehicle and compound I-1 at the peak of disease. This method generally follows that found in YOU et al. (2011) “Latency delay of visual evoked potential is a real measurement of demyelination in a rat model of optic neuritis” Invest Ophthalmol Vis Sci, Vol. 52, pp. 6911-6918.

For `Nc1ccccc1NC(=O)c1cnc(NC(=O)C(N)c2ccccc2)cn1` (centres unmarked) [Compound I-17], the “activity in promoting OPC into mature oligodendrocytes relative to compound I-1” value [1] was “comparable activity with compound I-1” and the “OPC differentiation (MBP, Olig2 immunostaining)” value [1] was “promote OPC differentiation”.
In the case of `CNC(=O)Nc1ccc2c(c1)CC[C@@]21OC(=O)N(CC(=O)N(Cc2ccc(F)cc2)[C@@H](C)C(F)(F)F)C1=O` [Compound A485], the p300 activity (p300) was “inhibits p300 activity”.
In the case of `Nc1ccccc1NC(=O)c1cnc(NC2=N[C@H](c3ccccc3)[C@H](c3ccccc3)O2)cn1` [Compound I-15], the “OPC differentiation (MBP, Olig2 immunostaining)” value [1] was “promote OPC differentiation”.
In the case of `Nc1ccccc1NC(=O)c1cnc(NC(c2ccccc2)c2ccccc2)cn1` [Compound I-8], the “activity in promoting OPC into mature oligodendrocytes relative to compound I-1” value [1] was “comparable activity with compound I-1” and the “OPC differentiation (MBP, Olig2 immunostaining)” value [1] was “promote OPC differentiation”.
With `CC(C(=O)Nc1cnc(C(=O)Nc2ccccc2N)cn1)c1ccccc1` (centres unmarked) [Compound I-16] the “OPC differentiation (MBP, Olig2 immunostaining)” value [1] was “promote OPC differentiation”.
In the case of `Nc1ccccc1NC(=O)c1cnc(NCc2ccccc2)cn1` [Compound I-1], the “myelin MBP+ cell formation 3 days after treatment” value ([2]; 3 days after treatment, FIG. 6) was “enhances myelin MBP+ cell formation”, the “myelin MBP+ cell formation” value ([2]; FIG. 5) was “enhances myelin MBP+ cell formation” and the “oligodendrocyte differentiation and myelination in vitro” value ([2]; rat OPCs, MBP/OLIG2 immunostaining, FIGS. 1-6) was “promoted oligodendrocyte differentiation and myelination in vitro”. For the same molecule, the OPC differentiation ([2]; rat primary OPCs, FIGS. 1, 3, 4) was “promotes oligodendrocyte progenitor cell (OPC) differentiation”, the “myelin formation in presence of A485” value ([2]; with p300 inhibitor A485, FIG. 2) was “appears to overcome A485 inhibition to enhance myelin formation” and the functional regeneration [3] was “promotes functional regeneration”. The “EAE disease severity / motor function (clinical scores)” value ([3]; MOG35-55 induced) was “improved motor function reflected in clinical scores; also recorded: reduced EAE disease severity”, the “VEP N1 signals” value (EAE mice) was “showed greater and faster conducting VEP N1 signals” and the “OPC differentiation (MBP, Olig2 immunostaining)” value [1] was “promote OPC differentiation”.
`Nc1ccccc1NC(=O)c1cnc(NC(=O)C(c2ccccc2)c2ccccc2)cn1` [Compound I-13] was tested, and the “OPC differentiation (MBP, Olig2 immunostaining)” value [1] was “promote OPC differentiation”.
